{"source": "patent US20150065888A1", "about": "“METHOD AND APPARATUS FOR OBTAINING VASODILATION DATA REPRESENTING CUTANEOUS LOCAL THERMAL HYPEREMIA RESPONSE OF A SUBJECT” (NEW CHINESE BIOTECHNOLOGY CORPORATION LTD, priority 2012, published 2015)", "system": "cutaneous local thermal hyperemia response", "experiment": "Cutaneous local thermal hyperemia test by laser Doppler flowmetry before and after chemical intervention (oral β-blocker)", "assay_type": "in vivo, human", "settings": "subject with panic disorder, 30 minutes after oral propranolol 10 mg", "procedure": "The participants were supine during the entire test period. Cutaneous blood flow was measured by LDF (Moor DRT4, Moor Instruments Ltd, Axminster, Devon, UK). For each measurement, blood pressure was recorded continuously with a non-invasive blood pressure monitor (CareTaker, Empirical Technologies Corporation, Charlottesville, Va., USA) on the middle finger of the dominant hand throughout the procedures.\nBlood flow was recorded simultaneously on the upper one-fourth of the bilateral forearm using LDF (DP12-V2 probe, 2 channels, length: 12 mm, diameter 1.5 mm; Moor Instruments Ltd.), and two recording sites were located at the radial half of the flexor and extensor aspects of the forearm, which were located according to a predefined rule. The probe was mounted to a probe holder to hold the probe in position. The extensor and flexor recording sites were located along the line between the extensor and flexor aspects of the lateral epicondyle of the humerus, respectively, and the lateral side of the styloid process of radius. The same sites were measured bilaterally with the flexor and extensor aspects in a random sequence. The recording sites were kept thermally neutral at 33° C. by a heater (SH02-SHP2 probe, Moor Instruments Ltd.) for 5 minutes for the baseline measurement, and then the temperature was increased to 42° C. by 1° C./10 seconds and maintained at 42° C. for up to 5 minutes. After completing the measurements, the holders were maintained in situ, and all of the procedures were repeated with the same recording sequence 45 minutes after the first measurement. The holders were then removed without marking after the first day of the experiment. The same procedures were conducted at the same time 1 to 3 days later, and the recording sites were relocated according to the same predefined rule.\nCutaneous red blood cell flux (RBCF), expressed as arbitrary perfusion units (PUs), was used to indicate local cutaneous blood flow, and CVC (PU/mmHg), which derived from RBCF divided by mean arterial pressure to adjust for the influence of blood pressure, was the indicator of blood flow change.\nBaseline CVC, peak CVC, absolute change of peak CVC, percent change of peak CVC, 4 minutes area-under-the-curve (AUC), and time to peak flux were used as indicators of the hyperemic response during heating. The absolute change of peak CVC was defined as the peak CVC minus baseline CVC, and the percentage of peak CVC change equals to the absolute change of peak CVC divided by baseline CVC multiplied by 100%. The 4 minutes AUC was the accumulation of blood flux during the first 4 minutes of the heating period. The time to peak flux was the period from the heating started and up to peak flux.\nUpon arrival in the laboratory, the subjects were arranged on chairs in a temperature- and humidity-controlled laboratory (40-60% humidity, 25±1° C.) for acclimation of 30 minutes. After the acclimation period, the thermal hyperemia test was performed at specified sampling sites. The participants were supine during the entire test period. Cutaneous blood flow was measured by LDF (Moor DRT4, Moor Instruments Ltd, Axminster, Devon, UK). For each measurement, blood pressure was recorded continuously with a non-invasive blood pressure monitor (CareTaker, Empirical Technologies Corporation, Charlottesville, Va., USA) on the middle finger of the dominant hand throughout the procedures. The sampling and data processing procedures taught in Example 1, above, also applied in the present example.\nSubject (45 kg) suffering from panic disorder was sampled at the infraclavicular, parasternal and axilla sites (points (i), (j) and (l) in FIG. 2) on both the right and left sides before and after the administration of β-blocker. Specifically, the post-β-blocker sampling procedure was performed at 30 minutes after the oral administration of β-blocker, propranolol, (10 mg)."}
{"smiles": "CC(C)NCC(O)COc1cccc2ccccc12", "note": "(stereo not drawn) [propranolol]", "values": [{"measurement": "CVCI, max, After", "setting": "Axilla, left", "result": 1.09, "unit": "PU/mmHg"}, {"measurement": "Initial AUC, After", "setting": "Axilla, left", "result": 17019, "unit": "PU"}, {"measurement": "ΔCVC, After", "setting": "Axilla, left", "result": 0.92, "unit": "PU/mmHg"}, {"measurement": "CVCI, max, After", "setting": "Axilla, right", "result": 1.91, "unit": "PU/mmHg"}, {"measurement": "Initial AUC, After", "setting": "Axilla, right", "result": 31740, "unit": "PU"}, {"measurement": "ΔCVC, After", "setting": "Axilla, right", "result": 1.63, "unit": "PU/mmHg"}, {"measurement": "CVCI, max, After", "setting": "Infraclavicular, left", "result": 1.03, "unit": "PU/mmHg"}, {"measurement": "Initial AUC, After", "setting": "Infraclavicular, left", "result": 17298, "unit": "PU"}, {"measurement": "ΔCVC, After", "setting": "Infraclavicular, left", "result": 0.88, "unit": "PU/mmHg"}, {"measurement": "CVCI, max, After", "setting": "Infraclavicular, right", "result": 1.95, "unit": "PU/mmHg"}, {"measurement": "Initial AUC, After", "setting": "Infraclavicular, right", "result": 33797, "unit": "PU"}, {"measurement": "ΔCVC, After", "setting": "Infraclavicular, right", "result": 1.76, "unit": "PU/mmHg"}, {"measurement": "CVCI, max, After", "setting": "Parasternal, left", "result": 1.45, "unit": "PU/mmHg"}, {"measurement": "Initial AUC, After", "setting": "Parasternal, left", "result": 26800, "unit": "PU"}, {"measurement": "ΔCVC, After", "setting": "Parasternal, left", "result": 1.28, "unit": "PU/mmHg"}, {"measurement": "CVCI, max, After", "setting": "Parasternal, right", "result": 2.53, "unit": "PU/mmHg"}, {"measurement": "Initial AUC, After", "setting": "Parasternal, right", "result": 47602, "unit": "PU"}, {"measurement": "ΔCVC, After", "setting": "Parasternal, right", "result": 2.36, "unit": "PU/mmHg"}]}
